Measurements reported in patent US12043602B2, “Fendiline derivatives” (The Board of Regents of the University of Texas System, priority 2019, dated 2024).

Legend:
[1] = system: MDCK cells co-expressing GFP-K-RASG12V and mCherry-CAAX; test: Cytotoxicity in mislocalization screen (death of all cells in well); conditions: drug caused death of all cells in well at 30 μM
[2] = target: mGFP-K-RASG12V (Homo sapiens (Human), UniProt P01116, G12V); test: K-Ras mislocalization assay (confocal microscopy, Manders coefficient); assay type: cell-based; design: key to Emax: Manders coefficient: fraction of mCherry-CAAX co-localizing with GFP-K-Ras; conditions: for Emax: maximal effect, Manders coefficient; for Emax / IC50 / EC50: MDCK cells; for Emax / EC50: 48 h; for IC50: 48 h treatment, read-out: IC50 (μM), KRASG12V mislocalization; for EC50: batch 4 compounds, title calls it IC50, read-out: EC50
Procedure: Madine Darby Canine Kidney epithelial cells (MDCK) stably co-expressing mGFP-tagged full length oncogenic mutant K-Ras (GFP—K-RASG12V) or mGFP-LactC2 (peptide probe for phosphatidylserine) and mCherry-tagged to the amino acids 179-189 of H-RasC181S, C184S (mCherry-CAAX, localizes primarily to endomembranes) were grown in DMEM-high glucose/sodium pyruvate/10% FBS. The medium was supplemented with 1× Penicillin/Streptomycin for fluorescence microscopy assays, to avoid any microbial contamination from the test compounds added. KLE and Hec50 cells were maintained in DMEM-F-12 medium supplemented with 10% FBS. Hec-1A and Hec-1B cells were grown in McCoy's 5a medium supplemented with 10% FBS. ESS-1 cells were grown in RPMI 1640 medium supplemented with 20% FBS. MPanc96 cells were grown in DMEM supplemented with 10% FBS, MiaPaCa-2 cells in DMEM supplemented with 10% FBS and 2.5% horse serum and all other cell lines were grown in RPMI 1640 supplemented with 10% FBS. All cancer cell media were supplemented with ×Penicillin/Streptomycin. All cell lines were grown at 37° C. with 5% CO2.
MDCK co-expressing GFP—K-RASG12V or LactC2 and mCherry-CAAX were grown on coverslips, treated with 0.1% vehicle (DMSO) or various concentrations of drugs for 48 h, and fixed with 4% paraformaldehyde. The coverslips were mounted in mowiol and imaged by confocal microscopy (Nikon A1) using a 60× objective. Using ImageJ software v1.42q, images were converted to 8-bit, and a threshold to a control pixel of each image was set. As a measure of K-Ras/LactC2 mislocalization, the fraction of mCherry-CAAX co-localizing with mGFP-K-RASG12V was calculated using a Manders coefficient plugin downloaded from Wright Cell Image Facility. The fraction of mCherry-CAAX co-localizing with mGFP-RASG12V (Mander's coefficient) is proportional to K-Ras mislocalization.

Row | Emax [2] | IC50 [2] [µM] | SMILES | Cytotoxic at 30 μM [1] | further results
1 | 0.739 | 8.85 | Fc1ccc(CN(CC=C(c2ccccc2)c2ccccc2)CCN2CCCC2)cc1 [PW278, N-(4-fluorobenzyl)-3,3-diphenyl-N-(2-(pyrrolidin-1-yl)ethyl)prop-2-en-1-amine] | Yes | –
2 | 0.696 | 0.654 | Cc1cc(C)n(CCN(CC=C(c2ccccc2)c2ccccc2)[C@H](C)c2ccc(F)cc2)n1 [PW299, (R)-N-(2-(3,5-dimethyl-1H-pyrazol-1-yl)ethyl)-N-(1-(4-fluorophenyl)ethyl)-3,3-diphenylprop-2-en-1-amine] | No | –
3 | 0.592 | 12.5 | Nc1nccnc1C(=O)N(CC=C(c1ccccc1)c1ccccc1)CCN1CCCC1 [PW282, 3-amino-N-(3,3-diphenylallyl)-N-(2-(pyrrolidin-1-yl)ethyl)pyrazine-2-carboxamide] | No | –
4 | 0.609 | 0.507 | C[C@H](c1ccc(F)cc1)N(CC=C(c1ccccc1)c1ccccc1)CCn1cc(CN)nn1 [PW305, (R)-N-(2-(4-(aminomethyl)-1H-1,2,3-triazol-1-yl)ethyl)-N-(1-(4-fluorophenyl)ethyl)-3,3-diphenylprop-2-en-1-amine] | Yes | –
5 | 0.764 | 0.17 | OC[C@H](c1ccccc1)N(CC=C(c1ccccc1)c1ccccc1)CC=C(c1ccccc1)c1ccccc1 [AVA72, reference compound] | No | –

More lines, now with the values behind:

Row | SMILES | Emax [2] | IC50 [2] [µM] | Cytotoxic at 30 μM [1] | further results
6 | COc1cccc(C(=CCN(CCN2CCCC2)[C@H](C)c2ccc(F)cc2)c2cccc(OC)c2)c1 [PW357, (R)-N-(1-(4-Fluorophenyl)ethyl)-3,3-bis(3-methoxyphenyl)-N-(2-(pyrrolidin-1-yl)ethyl)prop-2-en-1-amine] | 0.497 | – | Yes at 10 uM | –
7 | COc1ccc([C@@H](C)N(CC=C(c2ccccc2)c2ccccc2)CCN2CCN(C(=O)Oc3ccccc3)CC2)cc1 [NY353, (R)-phenyl 4-(2-((3,3-diphenylallyl)(1-(4-methoxyphenyl)ethyl)amino)ethyl) piperazine-1-carboxylate] | 0.920 | 3.26 | No | –
8 | COc1ccc([C@@H](C)N(CC=C(c2ccccc2)c2ccccc2)CCN2CCN(CC(C)C)CC2)cc1 [NY0372, (R)-N-(2-(4-isobutylpiperazin-1-yl)ethyl)-N-(1-(4-methoxyphenyl)ethyl)-3,3-diphenylprop-2-en-1-amine] | 0.868 | 16.4 | No | –
9 | COc1ccc([C@@H](C)N(CC=C(c2ccccc2)c2ccccc2)CCN2CCN(S(C)(=O)=O)CC2)cc1 [NY351, (R)-N-(1-(4-methoxyphenyl)ethyl)-N-(2-(4-(methylsulfonyl)piperazin-1-yl)ethyl)-3,3-diphenylprop-2-en-1-amine] | 0.851 | 1.11 | No | –
10 | NC(=O)[C@H](NCC=C(c1ccccc1)c1ccccc1)c1ccccc1 [NY0569, (R)-2-((3,3-diphenylallyl)amino)-2-phenylacetamide] | 0.321 | – | No | –
11 | COc1ccc([C@@H](C)N(C/C=C/c2ccccc2)CCN2CCN(C)CC2)cc1 [NY346, (R,E)-N-(1-(4-methoxyphenyl)ethyl)-N-(2-(4-methylpiperazin-1-yl)ethyl)-3-phenylprop-2-en-1-amine] | 0.84 ± 0.01 | 14.8 | No | KRAS PM localization inhibition activity (in words) [2]: complete loss of in vitro activity
12 | COC(=O)[C@H](NCC=C(c1ccccc1)c1ccccc1)c1ccccc1 [NY055102, Methyl (R)-2-((3,3-diphenylallyl)amino)-2-phenylacetate] | 0.424 | – | No | –
13 | C[C@@H](NCC(=O)N1c2ccccc2Sc2ccccc21)c1ccccc1 [NY0572, (R)-1-(10H-phenothiazin-10-yl)-2-((1-phenylethyl)amino)ethan-1-one] | 0.565 | – | No | –
14 | CCN(CC=C(c1ccccc1)c1ccccc1)[C@@H](C)c1ccc(OC)cc1 [NY0431] | 0.756 | 2.91 | No | –
15 | C[C@H](c1ccc(F)cc1)N(CC=C(c1ccccc1)c1ccccc1)CCN1CCN(C)CC1 [NY0505, (R)-N-(1-(4-fluorophenyl)ethyl)-N-(2-(4-methylpiperazin-1-yl)ethyl)-3,3-diphenylprop-2-en-1-amine] | 0.832 | 1.5 | Yes | EC50 [2]: 1.51 µM; Emax ([2]; listed as 15e): 0.83 ± 0.02
16 | COc1ccc([C@@H](C)N(CC=C(c2ccccc2)c2ccccc2)C(=O)Oc2ccccc2)cc1 [NY0225, (R)-phenyl (3,3-diphenylallyl)(1-(4-methoxyphenyl)ethyl)carbamate] | 0.626 | 0.43 | Yes | –
17 | C(CN1CCc2ccccc2C1)=C(c1ccccc1)c1ccccc1 [NY0221, 2-(3,3-diphenylallyl)-1,2,3,4-tetrahydroisoquinoline] | 0.585 | 0.65 | No | –
18 | COc1ccc([C@@H](C)N(CC=C(c2ccccc2)c2ccccc2)CC(=O)N2CCc3ccccc3C2)cc1 [NY0233, (R)-1-(3,4-dihydroisoquinolin-2(1H)-yl)-2-((3,3-diphenylallyl)(1-(4-methoxyphenyl)ethyl)amino)ethanone] | 0.522 | 3.56 | No | –
19 | Cc1nnc([C@H](NCC=C(c2ccccc2)c2ccccc2)c2ccccc2)o1 [NY0570, (R)-N-((5-methyl-1,3,4-oxadiazol-2-yl)(phenyl)methyl)-3,3-diphenylprop-2-en-1-amine] | 0.397 | – | No | –
20 | COc1ccc([C@@H](C)N(CC=C(c2ccccc2)c2ccccc2)C(=O)NC2CCCCC2)cc1 [NY0521, (R)-3-cyclohexyl-1-(3,3-diphenylallyl)-1-(1-(4-methoxyphenyl)ethyl)urea] | 0.816 | – | No | –
21 | COc1ccc([C@@H](C)N(CC=C(c2ccccc2)c2ccccc2)CC(=O)O)cc1 [NY0229, (R)-2-((3,3-diphenylallyl)(1-(4-methoxyphenyl)ethyl)amino)acetic acid] | 0.522 | 6.39 | No | –
22 | CCOC(CCCN(CC=C(c1ccccc1)c1ccccc1)[C@H](C)c1ccc(OC)cc1)OCC [NY348, (R)-N-(3,3-diphenylallyl)-4,4-diethoxy-N-(1-(4-methoxyphenyl)ethyl)butan-1-amine] | 0.963 | 5.47 | No | –
23 | COC(=O)[C@H](CC(C)C)NC(=O)[C@H](NCC=C(c1ccccc1)c1ccccc1)c1ccccc1 [NY0566, methyl ((R)-2-((3,3-diphenylallyl)amino)-2-phenylacetyl)-L-leucinate] | 0.718 | – | No | EC50 [2]: 5.93 µM
24 | COc1ccc([C@@H](C)N(CC=C(c2ccccc2)c2ccccc2)CCO)cc1 [NY0241, (R)-2-((3,3-diphenylallyl)(1-(4-methoxyphenyl)ethyl)amino)ethanol] | 0.72 ± 0.03 | 0.2 | No | Cytotoxic at 30 μM ([1]; listed as 11e): did not show any cytotoxic; Emax ([2]; listed as 11e): 0.72; fold increase in KRAS mislocalization potency ([2]; versus hit 7): 2.5 fold
